# Results published in PubChem BioAssay (NCI).
#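 Each compound was tested at five concentrations against cells in 96-well plates for 48 hours. TGI marks complete inhibition of growth.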
# Legend:
# Experiment in all cases: NCI-60 cell line screen, 48 h
# [1] = tested on: 786-0 renal
# [2] = tested on: IGROV1 ovarian
# [3] = tested on: CAKI-1 renal
# [4] = tested on: OVCAR-8 ovarian
# [5] = tested on: KM20L2 colon
# [6] = tested on: HOP-92 NSCLC
# [7] = tested on: SF-539 CNS
# [8] = tested on: HCT-15 colon
# [9] = tested on: U251 CNS
# [10] = tested on: HL-60(TB) leukemia
# [11] = tested on: M14 melanoma
# [12] = tested on: NCI-H226 lung
# [13] = tested on: EKVX NSCLC
# [14] = tested on: OVCAR-3 ovarian
# [15] = tested on: A549 NSCLC
# [16] = tested on: LXFL 529 NSCLC
# [17] = tested on: OVCAR-4 ovarian
# [18] = tested on: HCC-2998 colon
# [19] = tested on: LOX IMVI melanoma
# [20] = tested on: HOP-62 NSCLC
# [21] = tested on: SF-295 CNS
# [22] = tested on: NCI-H23 lung
# [23] = tested on: K-562 leukemia
# [24] = tested on: KM12 colon
# [25] = tested on: SF-268 CNS
# [26] = tested on: NCI-H460 lung
# [27] = tested on: SW-620 colon
# [28] = tested on: RXF 393 renal
# [29] = tested on: HT29 colon
# [30] = tested on: SNB-75 CNS
# [31] = tested on: DLD-1 colon
# [32] = tested on: ACHN renal
# [33] = tested on: RXF-631 renal
# [34] = tested on: UO-31 renal
# [35] = tested on: SN12C renal
# [36] = tested on: SR leukemia
# [37] = tested on: UACC-62 melanoma
# [38] = tested on: COLO 205 colon
# [39] = tested on: SNB-19 CNS
# [40] = tested on: CCRF-CEM leukemia
# [41] = tested on: OVCAR-5 ovarian
# [42] = tested on: DMS 273 small cell lung
# [43] = tested on: MALME-3M melanoma
# [44] = tested on: M19-MEL melanoma
# [45] = tested on: RPMI-8226 leukemia
# [46] = tested on: SK-MEL-2 melanoma
# [47] = tested on: SK-MEL-5 melanoma
# [48] = tested on: SK-OV-3 ovarian
# [49] = tested on: DMS 114 small cell lung
# [50] = tested on: HOP-18 NSCLC
# [51] = tested on: SK-MEL-28 melanoma
# [52] = tested on: SNB-78 CNS
# [53] = tested on: HCT-116 colon
# [54] = tested on: TK-10 renal
# [55] = tested on: UACC-257 melanoma
# [56] = tested on: MOLT-4 leukemia
# [57] = tested on: A498 renal
# [58] = tested on: NCI-H522 lung
structure (smiles),measurement,setting,value
CC(C)(C)C[P+](C)(C)c1ccccc1,TGI,[1],> 100 µM
same,TGI,[2],> 100 µM
same,TGI,[3],> 100 µM
same,TGI,[4],> 100 µM
same,TGI,[5],> 100 µM
same,TGI,[6],> 100 µM
same,TGI,[7],> 100 µM
same,TGI,[8],> 100 µM
same,TGI,[9],> 100 µM
same,TGI,[10],> 100 µM
same,TGI,[11],> 100 µM
same,TGI,[12],> 100 µM
same,TGI,[13],> 100 µM
same,TGI,[14],> 100 µM
same,TGI,[15],> 100 µM
same,TGI,[16],> 100 µM
same,TGI,[17],> 100 µM
same,TGI,[18],> 100 µM
same,TGI,[19],> 100 µM
same,TGI,[20],> 100 µM
same,TGI,[21],> 100 µM
same,TGI,[22],> 100 µM
same,TGI,[23],> 100 µM
same,TGI,[24],> 100 µM
same,TGI,[25],> 100 µM
same,TGI,[26],> 100 µM
same,TGI,[27],> 100 µM
same,TGI,[28],> 100 µM
same,TGI,[29],> 100 µM
same,TGI,[30],> 100 µM
same,TGI,[31],> 100 µM
same,TGI,[32],> 100 µM
same,TGI,[33],> 100 µM
same,TGI,[34],> 100 µM
same,TGI,[35],> 100 µM
same,TGI,[36],> 100 µM
same,TGI,[37],> 100 µM
same,TGI,[38],> 100 µM
same,TGI,[39],> 100 µM
same,TGI,[40],> 100 µM
same,TGI,[41],> 100 µM
same,TGI,[42],> 100 µM
same,TGI,[43],> 100 µM
same,TGI,[44],> 100 µM
same,TGI,[45],> 100 µM
same,TGI,[46],> 100 µM
same,TGI,[47],> 100 µM
same,TGI,[48],> 100 µM
same,TGI,[49],> 100 µM
same,TGI,[50],> 100 µM
same,TGI,[51],> 100 µM
same,TGI,[52],> 100 µM
same,TGI,[53],> 100 µM
same,TGI,[54],> 100 µM
same,TGI,[55],> 100 µM
same,TGI,[56],> 100 µM
CC(C)NC(=O)O/N=C1\CCC2[C@@H]3CC=C4C[C@@H](OC(=O)NC(C)C)CC[C@]4(C)C3CC[C@]12C (stereo partly specified),TGI,[1],4.01 µM
same,TGI,[3],4.29 µM
same,TGI,[4],3.75 µM
same,TGI,[5],9.59 µM
same,TGI,[6],5.02 µM
same,TGI,[8],3.08 µM
same,TGI,[9],2.8 µM
same,TGI,[10],5.37 µM
same,TGI,[11],1.95 µM
same,TGI,[12],> 100 µM
same,TGI,[13],3.42 µM
same,TGI,[14],3.6 µM
same,TGI,[15],5.11 µM
same,TGI,[16],2.13 µM
same,TGI,[17],3.5 µM
same,TGI,[18],5.06 µM
same,TGI,[57],> 30.3 µM
same,TGI,[19],2.27 µM
same,TGI,[20],> 34 µM
same,TGI,[21],7.67 µM
same,TGI,[22],3.79 µM
same,TGI,[23],5.85 µM
same,TGI,[24],3.73 µM
same,TGI,[25],3.22 µM
same,TGI,[26],3.06 µM
same,TGI,[27],3.72 µM
same,TGI,[28],3.54 µM
same,TGI,[29],8.87 µM
same,TGI,[30],3.74 µM
same,TGI,[31],> 25.3 µM
same,TGI,[32],2.17 µM
same,TGI,[33],3.57 µM
same,TGI,[34],2.3 µM
same,TGI,[35],3.14 µM
same,TGI,[36],7.69 µM
same,TGI,[37],3.18 µM
same,TGI,[38],1.29 µM
same,TGI,[58],3.4 µM
same,TGI,[39],6.05 µM
same,TGI,[40],5.03 µM
same,TGI,[41],4.26 µM
same,TGI,[42],2.82 µM
same,TGI,[43],0.983 µM
same,TGI,[44],2.81 µM
same,TGI,[45],2.96 µM
same,TGI,[46],2.9 µM
same,TGI,[48],13.5 µM
same,TGI,[49],1.98 µM
same,TGI,[50],4.67 µM
same,TGI,[51],3.26 µM
same,TGI,[52],6.77 µM
same,TGI,[53],4.94 µM
same,TGI,[54],3.15 µM
same,TGI,[55],2.4 µM
same,TGI,[56],4.81 µM
